# Data as given in patent US10947252B2, “Inhibitors of KEAP1-Nrf2 protein-protein interaction” (Janssen Pharmaceutica NV, priority 2018, dated 2021).
# System: Glo-Response ARE-luc2P HEK293 cell line
# Experiment: ARE luciferase reporter cell-based assay;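 further: luciferase signal tracks Nrf2 activation of the ARE once compounds disrupt KEAP1-Nrf2 binding, read with One-Glo reagent, DMSO serving as low control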
# Conditions: Homo sapiens, HEK293, 24 h, average of results obtained
row,Compound,EC50
1,"CC[C@@H]1CN(Cc2cc([C@H](CC(=O)O)c3ccn4c(C(F)F)nnc4c3C)ccc2C)S(=O)(=O)c2cccnc2O1 (relative stereo) [Example 464, (*S)-3-(3-(Difluoromethyl)-8-methyl-[1,2,4]triazolo[4,3-a]pyridin-7-yl)-3-(3-(((R)-4-ethyl-1,1-dioxido-3,4-dihydro-2H-pyrido[2,3-b][1,4,5]oxathiazepin-2-yl)methyl)-4-methylphenyl)propanoic Acid]",24.7 nM
2,"Cc1cnc2c(c1)S(=O)(=O)N(Cc1nc([C@@H](CC(=O)O)c3ccn4c(C(F)(F)F)nnc4c3C)ccc1C)C[C@@H]1CCCCN21 (relative stereo) [Example 488, (*S)-3-(8-Methyl-3-(trifluoromethyl)-[1,2,4]triazolo[4,3-a]pyridin-7-yl)-3-(5-methyl-6-(((*S)-3-methyl-5,5-dioxido-7,7a,8,9,10,11-hexahydro-6H-dipyrido[2,1-d:2′,3′-f][1,2,5]thiadiazepin-6-yl)methyl)pyridin-2-yl)propanoic Acid]",11.9 nM
3,"Cc1ccc([C@H](c2ccn3c(C(F)(F)F)nnc3c2C)C(C)C(=O)O)nc1CN1C[C@@H]2CCCCN2c2ncc(F)cc2S1(=O)=O (relative stereo) [Example 506, (3*S)-3-(6-(((S)-3-fluoro-5,5-dioxido-7,7a,8,9,10,11-hexahydro-6H-dipyrido[2,1-d:2′,3′-f][1,2,5]thiadiazepin-6-yl)methyl)-5-methylpyridin-2-yl)-2-methyl-3-(8-methyl-3-(trifluoromethyl)-[1,2,4]triazolo[4,3-a]pyridin-7-yl)propanoic Acid]",7.83 nM
4,"Cc1ccc([C@@H](c2ccn3c(C(F)(F)F)nnc3c2C)C(C)C(=O)O)nc1CN1C[C@@H]2CCCCN2c2ncc(F)cc2S1(=O)=O (relative stereo) [Example 507, (3*R)-3-(6-(((*S)-3-Fluoro-5,5-dioxido-7,7a,8,9,10,11-hexahydro-6H-dipyrido[2,1-d:2′,3′-f][1,2,5]thiadiazepin-6-yl)methyl)-5-methylpyridin-2-yl)-2-methyl-3-(8-methyl-3-(trifluoromethyl)-[1,2,4]triazolo[4,3-a]pyridin-7-yl)propanoic Acid]",0.73 nM
5,"Cc1ccc([C@H](CC(=O)O)c2ccn3c(C(F)F)nnc3c2C)cc1CN1C[C@@H]2CCCCN2c2ncc(F)cc2S1(=O)=O (relative stereo) [Example 511, (*S)-3-(3-(Difluoromethyl)-8-methyl-[1,2,4]triazolo[4,3-a]pyridin-7-yl)-3-(3-(((*S)-3-fluoro-5,5-dioxido-7,7a,8,9,10,11-hexahydro-6H-dipyrido[2,1-d:2′,3′-f][1,2,5]thiadiazepin-6-yl)methyl)-4-methylphenyl)propanoic Acid]",1.52 nM
6,"Cc1ccc([C@H](CC(=O)O)c2ccn3c(C(F)F)nnc3c2C)cc1CN1C[C@H]2CCCCN2c2ncc(F)cc2S1(=O)=O (relative stereo) [Example 512, (*S)-3-(3-(Difluoromethyl)-8-methyl-[1,2,4]triazolo[4,3-a]pyridin-7-yl)-3-(3-(((*R)-3-fluoro-5,5-dioxido-7,7a,8,9,10,11-hexahydro-6H-dipyrido[2,1-d:2′,3′-f][1,2,5]thiadiazepin-6-yl)methyl)-4-methylphenyl)propanoic Acid]",3.21 nM
7,"CCc1c([C@H](c2ccc(C)c(CN3C[C@@H]4CCCCN4c4ncc(C)cc4S3(=O)=O)c2)C(C)C(=O)O)ccn2c(C(F)(F)F)nnc12 (relative stereo) [Example 513, (3*S)-3-(8-Ethyl-3-(trifluoromethyl)-[1,2,4]triazolo[4,3-a]pyridin-7-yl)-2-methyl-3-(4-methyl-3-(((*S)-3-methyl-5,5-dioxido-7,7a,8,9,10,11-hexahydro-6H-dipyrido[2,1-d:2′,3′-f][1,2,5]thiadiazepin-6-yl)methyl)phenyl)propanoic Acid]",1.63 nM
8,"Cc1cnc2c(c1)S(=O)(=O)N(Cc1cc([C@@H](c3ccn4c(C(F)(F)F)nnc4c3C)C(C)C(=O)O)ccc1C)C[C@@H]1CCCCN21 (relative stereo) [Example 514, (3*S)-2-Methyl-3-(4-methyl-3-(((*S)-3-methyl-5,5-dioxido-7,7a,8,9,10,11-hexahydro-6H-dipyrido[2,1-d:2′,3′-f][1,2,5]thiadiazepin-6-yl)methyl)phenyl)-3-(8-methyl-3-(trifluoromethyl)-[1,2,4]triazolo[4,3-a]pyridin-7-yl)propanoic Acid]",1.7 nM
9,"CCc1c([C@H](c2ccc(C)c(CN3C[C@H]4CCCCN4c4ncc(C)cc4S3(=O)=O)c2)C(C)C(=O)O)ccn2c(C(F)(F)F)nnc12 (relative stereo) [Example 515, (3*S)-3-(8-Ethyl-3-(trifluoromethyl)-[1,2,4]triazolo[4,3-a]pyridin-7-yl)-2-methyl-3-(4-methyl-3-(((*R)-3-methyl-5,5-dioxido-7,7a,8,9,10,11-hexahydro-6H-dipyrido[2,1-d:2′,3′-f][1,2,5]thiadiazepin-6-yl)methyl)phenyl)propanoic Acid]",1.33 nM
10,"CCc1c([C@@H](CC(=O)O)c2ccc(C)c(CN3C[C@@H]4CCCCN4c4ncc(C)cc4S3(=O)=O)c2)ccn2c(C(F)(F)F)nnc12 (relative stereo) [Example 517, (*S)-3-(8-Ethyl-3-(trifluoromethyl)-[1,2,4]triazolo[4,3-a]pyridin-7-yl)-3-(4-methyl-3-(((*S)-3-methyl-5,5-dioxido-7,7a,8,9,10,11-hexahydro-6H-dipyrido[2,1-d:2′,3′-f][1,2,5]thiadiazepin-6-yl)methyl)phenyl)propanoic Acid]",10.3 nM
11,"Cc1ccc([C@H](CC(=O)O)c2ccn3c(C(F)(F)F)nnc3c2C)nc1CN1C[C@H]2CCCCN2c2ncc(Cl)cc2S1(=O)=O (relative stereo) [Example 522, (*R)-3-(6-(((*R)-3-Chloro-5,5-dioxido-7,7a,8,9,10,11-hexahydro-6H-dipyrido[2,1-d:2′,3′-f][1,2,5]thiadiazepin-6-yl)methyl)-5-methylpyridin-2-yl)-3-(8-methyl-3-(trifluoromethyl)-[1,2,4]triazolo[4,3-a]pyridin-7-yl)propanoic Acid]",5.06 nM
12,"Cc1cnc2c(c1)S(=O)(=O)N(Cc1cc([C@H](c3ccn4c(C(F)(F)F)nnc4c3C)[C@H](C)C(=O)O)ccc1C)CC1(CC1)O2 (relative stereo) [Example 545, (2*S,3*R)-2-Methyl-3-(4-methyl-3-((8′-methyl-1′,1′-dioxidospiro[cyclopropane-1,4′-pyrido[2,3-b][1,4,5]oxathiazepin]-2′(3′H)-yl)methyl)phenyl)-3-(8-methyl-3-(trifluoromethyl)-[1,2,4]triazolo[4,3-a]pyridin-7-yl)propanoic Acid]",49.8 nM
13,"Cc1cnc2c(c1)S(=O)(=O)N(Cc1cc([C@H](c3ccn4c(C(F)(F)F)nnc4c3C)[C@@H](C)C(=O)O)ccc1C)CC1(CC1)O2 (relative stereo) [Example 546, (2*R,3*R)-2-Methyl-3-(4-methyl-3-((8′-methyl-1′,1′-dioxidospiro[cyclopropane-1,4′-pyrido[2,3-b][1,4,5]oxathiazepin]-2′(3′H)-yl)methyl)phenyl)-3-(8-methyl-3-(trifluoromethyl)-[1,2,4]triazolo[4,3-a]pyridin-7-yl)propanoic Acid]",> 20000 nM
14,"Cc1ncc([C@@H](c2ccn3c(C(F)(F)F)nnc3c2C)C(C)(C)C(=O)O)cc1CN1C[C@H]2CCCCN2c2ncc(C#N)cc2S1(=O)=O (relative stereo) [Example 654, (*R)-3-(5-(((*R)-3-Cyano-5,5-dioxido-7,7a,8,9,10,11-hexahydro-6H-dipyrido[2,1-d:2′,3′-f][1,2,5]thiadiazepin-6-yl)methyl)-6-methylpyridin-3-yl)-2,2-dimethyl-3-(8-methyl-3-(trifluoromethyl)-[1,2,4]triazolo[4,3-a]pyridin-7-yl)propanoic Acid]",6880 nM
15,"Cc1ncc([C@H](c2ccn3c(C(F)(F)F)nnc3c2C)C(C)(C)C(=O)O)cc1CN1C[C@H]2CCCCN2c2ncc(C#N)cc2S1(=O)=O (relative stereo) [Example 656, (*S)-3-(5-(((*R)-3-Cyano-5,5-dioxido-7,7a,8,9,10,11-hexahydro-6H-dipyrido[2,1-d:2′,3′-f][1,2,5]thiadiazepin-6-yl)methyl)-6-methylpyridin-3-yl)-2,2-dimethyl-3-(8-methyl-3-(trifluoromethyl)-[1,2,4]triazolo[4,3-a]pyridin-7-yl)propanoic Acid]",3590 nM
16,"CCn1nnc2c(C)c([C@H](c3ccc(C)c(CN4CC5(CCOCC5)Oc5ncccc5S4(=O)=O)c3)C(C)(C)C(=O)O)ccc21 (single isomer, unassigned) [Example 15, (*S)-3-(3-((1′,1′-Dioxido-2,3,5,6-tetrahydrospiro[pyran-4,4′-pyrido[2,3-b][1,4,5]oxathiazepin]-2′(3′H)-yl)methyl)-4-methylphenyl)-3-(1-ethyl-4-methyl-1H-benzo[d][1,2,3]triazol-5-yl)-2,2-dimethylpropanoic Acid]",0.3 nM
17,"Cc1cnc2c(c1)S(=O)(=O)N(Cc1cc([C@@H](c3ccn4c(C(F)(F)F)nnc4c3C)C(C)(C)C(=O)O)ccc1C)CC1(CCOCC1)O2 (single isomer, unassigned) [Example 18, (*S)-2,2-Dimethyl-3-(4-methyl-3-((8′-methyl-1′,1′-dioxido-2,3,5,6-tetrahydrospiro[pyran-4,4′-pyrido[2,3-b][1,4,5]oxathiazepin]-2′(3′H)-yl)methyl)phenyl)-3-(8-methyl-3-(trifluoromethyl)-[1,2,4]triazolo[4,3-a]pyridin-7-yl)propanoic Acid]",1.5 nM
18,"Cc1cnc2c(c1)S(=O)(=O)N(Cc1cc([C@H](CC(=O)O)c3ccn4c(C(F)(F)F)nnc4c3C)ccc1C)CC1(CC1)O2 (single isomer, unassigned) [Example 27, (*S)-3-(4-Methyl-3-((8′-methyl-1′,1′-dioxidospiro[cyclopropane-1,4′-pyrido[2,3-b][1,4,5]oxathiazepin]-2′(3′H)-yl)methyl)phenyl)-3-(8-methyl-3-(trifluoromethyl)-[1,2,4]triazolo[4,3-a]pyridin-7-yl)propanoic Acid]",28.8 nM
